How the values were obtained:
Colon #38 = test: Mouse tumor panel: Colon #38 (sc, tumor weight inhibition); type: in vivo; conditions: D2,9
Description: (§1) NSC-271674 Against a Panel of a Mouse Tumors
(§2) **Tumor weight inhibition assay.
(§3) Data are expressed as a percentage of the survival time in days or the
(§4) tumor weights in mg of the treated mice divided by the corresponding
(§5) values for the control mice. All testing was performed using both platinu
(§6) compounds in the same experiment. The criteria for activity are as
(§7) follows: confirmed activity (activity from two separate laboratories) of
(§8) % T/C of 150 or more for survival systems and 10% or less for tumor weigh
(§9) inhibition assays. Lower levels of activity such as a % T/C of 125 for
(§10) survival systems and 42% for tumor weight inhibition assays are considere
(§11) statistically significant.

B16 melanoma = test: Mouse tumor panel: B16 melanoma (ip, survival time); type: in vivo; conditions: D1-9
Description: as §1
(§12) *Survival time (mean or median) assay
as §3, §4, §5, §6, §7, §8, §9, §10, §11

[1] = test system: strains of murine leukemia; test: Activity against strains of murine leukemia resistant to NSC 119875 (general statement); conditions: mouse, in vivo
L1210 [2] = test: In vitro growth inhibition of L1210 cells; type: cell-based, murine
Description: (§13) The ID50 refers to the concentration of test compound required to
(§14) inhibit the growth of either the L1210 or L1210/DDP (NSC119875) resistant

Lewis lung = test: Mouse tumor panel: Lewis lung (iv, survival time); type: in vivo; conditions: D1-9
Description: as §1, §12, §3, §4, §5, §6, §7, §8, §9, §10, §11

CD8F1 mammary = test: Mouse tumor panel: CD8F1 mammary (sc, tumor weight inhibition); type: in vivo; conditions: Q7DX5
Description: as §1, §2, §3, §4, §5, §6, §7, §8, §9, §10, §11

P388/DDP = test: In vivo activity against P388/DDP leukemia with acquired resistance to NSC-119875; conditions: Days 1,5,9,13, NSC-119875 6.7 mg/kg, NSC-271674 20.0 mg/kg
Description: P388/DDP refers to a tumor line with acquired resistance to NSC119875.
(§15) Data are expressed as survival in days and as a percentage increase in […]

P388 leukemia = test: In vivo activity against P388 leukemia; conditions: Days 1,5,9,13, NSC-119875 6.7 mg/kg, NSC-271674 20.0 mg/kg
Description: as §15

L1210 [3] = test: Mouse tumor panel: L1210 (ip, survival time); type: in vivo; conditions: D1-9
Description: as §1, §12, §3, §4, §5, §6, §7, §8, §9, §10, §11

L1210/DDP = test: In vitro growth inhibition of L1210/DDP (NSC-119875 resistant) cells; type: cell-based, murine
Description: as §13, §14

[4] = Renal Toxicity Screening Protocol, toxicity compared to NSC-119875; type: in vivo

With N.N.[Cl][Pt][Cl] [NSC-119875, cisdichlorodiamino platinum II, reference compound] the “% T/C (tumor weight) at optimal dose” value (Colon #38; Colon #38 first line, optimal dose NSC-119875 8, NSC-271674 12.5 mg/kg/inj) was 42%, the “% T/C (tumor weight) at optimal dose” value (Colon #38; Colon #38 second line, optimal dose NSC-119875 16, NSC-271674 50 mg/kg/inj) was 11% and the “% T/C (survival time) at optimal dose” value (B16 melanoma; B16 first line, optimal dose NSC-119875 2, NSC-271674 6.25 mg/kg/inj) was 193%. For the same compound, the “% T/C (survival time) at optimal dose” value (B16 melanoma; B16 second line, optimal dose NSC-119875 1, NSC-271674 1.56 mg/kg/inj) was 166%, the “activity against NSC 119875-exhausted strains (in words)” value [1] was “has exhausted its activity” and the “ID50 (concentration required to inhibit the growth of cells by 50 percent)” value (L1210 [2]) was 0.05 µg/mL. For the same compound, the “% T/C (survival time) at optimal dose” value (Lewis lung; Lewis lung first line, optimal dose NSC-119875 2, NSC-271674 3.12 mg/kg/inj) was 135%, the “% T/C (survival time) at optimal dose” value (Lewis lung; Lewis lung second line, optimal dose NSC-119875 2, NSC-271674 6.25 mg/kg/inj) was 177% and the “% T/C (tumor weight) at optimal dose” value (CD8F1 mammary; CD8F1 first line, optimal dose NSC-119875 8, NSC-271674 6.25 mg/kg/inj) was 0%. For the same compound, the “% T/C (tumor weight) at optimal dose” value (CD8F1 mammary; CD8F1 second line, optimal dose NSC-119875 8, NSC-271674 25 mg/kg/inj) was 0%, the “% ILS” value (P388/DDP) was 41% and the “Survival” value (P388/DDP) was 15.5 days. The “% ILS” value (P388 leukemia) was 145%, the “Survival” value (P388 leukemia) was 32.6 days and the “% T/C (survival time) at optimal dose” value (L1210 [3]; L1210 first line, optimal dose NSC-119875 2, NSC-271674 0.78 mg/kg/inj) was 151%. The “% T/C (survival time) at optimal dose” value (L1210 [3]; L1210 second line, optimal dose NSC-119875 2, NSC-271674 1.56 mg/kg/inj) was 182% and the “ID50 (concentration required to inhibit the growth of cells by 50 percent)” value (L1210/DDP) was 2.50 µg/mL.

In the case of N.N.O=C([O-])C1(C(=O)[O-])CCC1.[Pt+2] [NSC-241240, diamine [1,1cyclobutanedicarboxylato (2)0,0']platinum], the “Body Weight Loss score” value ([4]; relative to NSC-119875) is reported as 1, the “Clinical Chemistry - Blood Urea Nitrogen score” value ([4]; relative to NSC-119875) is reported as 1 and the “Clinical Chemistry - Creatinine score” value ([4]; relative to NSC-119875) is reported as 1. The “Clinical Chemistry - Serum Glutamic Pyruvic Transaminase score” value ([4]; relative to NSC-119875) was 3, the “Hematology - Hematocrit score” value ([4]; relative to NSC-119875) was 4 and the “Hematology - White Blood Cell score” value ([4]; relative to NSC-119875) was 3. For the same compound, the “Histopathology - Gastrointestinal score” value ([4]; relative to NSC-119875) was 1, the “Histopathology - Hematopoietic score” value ([4]; relative to NSC-119875) was 5 and the “Histopathology - Lymphatic score” value ([4]; relative to NSC-119875) was 1. The “Histopathology - Renal score” value ([4]; relative to NSC-119875) was 1 and the “TOTAL SCORE” value ([4]; sum of the ten scores) was 21.

— US4206207A, “Use of 4-carboxy-phthalato(1,2-diaminocyclohexane)-platinum (II) and alkali metal salts thereof with cyclophosphamide in alleviating L1210 murine leukemia” (priority 1978, dated 1980)
